Earlier results, collected in patent US20160001001A1 (priority 2013, published 2016).

Settings: in vivo

In the case of CN1CC[C@]23c4c5ccc(O)c4O[C@H]2[C@@H](O)C=C[C@H]3[C@H]1C5 [Morphine], the Onset time is listed as 8 min and the “Time elapsing until the maximum analgesic effect is reached” value is listed as 25 min.
